Experimental data published in patent publication US4565813A, “1,4-Thiazine derivatives” (Zenyaku Kogyo Kabushiki Kaisha, priority 1983, dated 1986).
Read-outs that look alike come from different tables or passages of the source.

Tests used:
[1] = tested on: isolated atria; assay: Contractile force of isolated atria; design: species or system guinea pig (male Hartley); conditions: Cavia porcellus; 50.0 μg/ml, isolated guinea pig atria; read-out: Maximum Contractile Force (increase)
Method: The pharmacological effects of the compound of the following general formula I will now be described: [drawing 9] wherein R1, R2 and R3 are as defined above. (1) The contractile force of isolated atria was tested according to the method of L. J. Macleod described in Pharmacological Experiments on Intact Preparations, pages 112-115 (1970). A 7-weeks-old male Hartley guinea pig (having a body weight of about 350 g) was killed by a blow on the head. The chest was opened and the heart was removed as quickly as possible and placed in Ringer-Locke solution (prepared by adding distilled water to 9.0 g of sodium chloride, 0.25 g of potassium chloride, 0.15 g of calcium chloride and 1.0 g of glucose so that the total amount was 1,000 ml) at room temperature. All other tissues was cut away until nothing was left except the atria. Threads were tied to each tip of the atria and the preparation thus obtained was mounted in Ringer-Locke solution at 30±1° C., through which a brisk stream of pure oxygen was bubbled. One thread was attached to a fixed pin in the Magnus' bath and the other to a force-displacement transducer connected to an electrical amplifier and recorder. When the rate and amplitude became constant, recording was started. After 1 minute, the solution of sample compound was injected and recording was conducted for 2 minutes. After completion of recording, the isolated atria was washed with Ringer-Locke solution until the rate and amplitude became constant. After 15 minutes, recording was started again.

[2] = tested on: coronary blood flow; assay: Coronary-vasodilating action (Langendorff's method); design: species or system guinea pig (male Hartley); conditions: Cavia porcellus; for activation at 0.1 mg: dose 100 μg
Method: (3) The coronary-vasodilating effect was tested according to the method disclosed in Basic Lectures of Medicine Development, Volume V, Pharmacological Test Methods, Part 2, page 537 (1971). A 7-weeks-old male Hartley guinea pig (having a body weight of about 350 g) was used. And the measurement was carried out under a perfusion pressure of about 60 mmHg according to the Langendorff's method by using as a nutrient solution a Krebs' solution. The incubation temperature was 37° C.

[3] = tested on: systolic blood pressure and heart rate, rats; assay: Effect on systolic blood pressure and heart rate (indirect tail-cuff method); format: in vivo, rat (male Wistar); conditions: 25 mg/kg p.o.
Method: Male Wister rats (having a body weight of about 350 g) were used. Systolic blood pressure and heart rate were measured in rats by indirect tail-cuff method, using a programmed electrosphymomanometer.

[4] = Acute toxicity (Litchfield-Wilcoxon method); conditions: mouse, in vivo, iv; tail vein, 6-weeks-old male ddY mice
Method: The acute toxicity of the compound of the general formula I was determined according to the Litchfield-Wilcoxon method [J. Pharm. Exp. Ther., 96, 99 (1949)] using 6-weeks-old male ddY mice (having a body weight of 19 to 24 g) while administrating the sample compound in the tail vein.

[5] = tested on: platelet aggregation; assay: Inhibition of platelet aggregation; format: cell-based, rat (male Wistar); conditions: Rattus norvegicus, 83.0 μg/ml
Method: (5) The inhibition of platelet aggregation was determined according to the method of Yamazaki [Hiroo Yamazaki, Clinical Inspections, 22, (9) 935-943 (1978)]. Eleven-weeks-old male Wistar rats (having a body weight of about 350 g) were used. Blood was drawn by venupuncture in the […]. Nine fold volume of blood was drawn, with mixing, into a syringe containing one volume of 3.1% (W/V) sodium citrate. Platelet-rich-plasma (PRP) was collected as the supernatant after centrifuging the citrated blood at 1,000 rpm for 10 min. Platelet-poor-plasma (PPP) was the resulting supernatant after the residual citrated blood was additionally centrifuged at 3,000 rpm for 10 min. Each 210 μl aliquot of PPP and PRP was placed in cuvette and stirred at 37° C. in aggregometer. The aggregation reactions were determined by changes in light transmissions. A 20 μl sample was injected into PRP in the aggregometer, and 1-2 min. later, a 20 μl aggregation stimulant was injected. Aggregation pattern and maximal aggregation rate of each sample were compared with those of control. 100 μM of ADP (adenosine-5'-diphosphate or 100 μg/ml of collagen was used as the aggregation stimulant. The obtained results are shown in Table 5.

[6] = tested on: isolated papillary muscles; assay: Contractile force of isolated papillary muscles; design: species or system cat (female); conditions: Felis catus, isolated cat papillary muscles, read-out: Maximum Contractile Force (increase); for activation at 10 µg/mL: 1.0 × 10^-5 g/ml
Method: (2) The contractile force of isolated papillary muscles was tested according to the method described in Basic Lectures of Medicine Development, Volume V, Pharmacological Test Methods, Part 2, page 535 (1971). A female cat (having a body weight of about 3.5 kg) was anaesthetized with ether-chloroform gas and exsanguinated. The chest of each cat was opened and the heart was excised, rinsed with Krebs-Henseleitsolution (prepared by adding distilled water to 6.92 g of sodium chloride, 0.35 g of calcium chloride, 0.29 g of magnesium sulfate, 0.16 g of mono-basic potassium phosphate, 2.1 g of sodium bicarbonate and 1.8 g of glucose so that the total amount was 1 l) and one or more small, thin papillary muscles from the right ventricule were dissected. Then papillary muscles were mounted in 20 ml Magnus' bath containing Krebs-Henseleit solution bubbled with oxygen gas at a temperature of 30±1° C. The papillary muscles were stimulated electrically at the rate of 2 beat/sec. and a voltage of 20% above threshold. The developed tension of the muscles was recorded isometrically on recorder by the use of force displacement tansducers.

[7] = tested on: smooth muscle of bronchus; assay: Bronchodilation effect (tracheal ring chain); design: species or system guinea pig (male Hartley)
Method: (7) The bronchodilation effect was tested according to the method of L. J. Macleod in Pharmacological Experiments on Intact Preparations, Pages 100-103 (1970). A 7-weeks-old, male Hartley guinea pig (having a body weight of about 350 g) was killed by a blow on the head and cutting the throat. The trachea was dissected out and transferred into Krebs' solution. The excessive tissue was removed and the trachea was cut transversely with great care not to damage smooth muscle, to form at least 5 tracheal rings which are tied together so as to form chain. One thread was attached to a fixed pin in the Magnus' bath and the other, to a force-displacement transducer connected to an electrical amplifier and recorder. Experiments with this preparation were performed at 37±1° C. in Krebs' solution through which O2 plus 5% CO2 was bubbled. The sample compound was injected and the recording was conducted for 4 minutes. After completion of the recording, the sample was washed out with Krebs' solution until the base line became stable. After 30 to 50 minutes, the recording was started again.

[8] = tested on: ventricular muscle and heart rate, anaesthetized dog; assay: Contractile force of ventricular muscle and heart rate of anaesthetized dog; format: in vivo, dog (male); conditions: for Heart Rate (up): infused i.v. 320 μg/kg/minute, anaesthetized dog; for Contractile Force of Ventricular Muscles (increase): infused i.v. (left femoral vein) 320 μg/kg/minute until maximum inotropic effect
Method: (4) The contractile force of ventricular muscle and heart rate in anaesthetized dog was tested according to the method described in Basic Lectures of Medicine Development, Volume V, Pharmacological Test Methods, Part 2, page 544 (1971). A male dog (having a body weight of about 12-14 kg) was anaesthetized with 40 mg/kg body weight of pentobarbital sodium (i.p.). Supplemental dose of pentobarbital was administered whenever necessary. An intra-tracheal cannula was inserted and ventilation was carried out by means of Harvard constant-volume, positive pressure pump using room air. The chest was opened by a midline incision and the heart was suspended in the pericardial cradle. The contratile force of the myocardium was measured by means of Walton-Brodie type strain-gauge arch sutured onto the left ventricle. Systemic blood pressure was measured from the left femoral artery by a pressure transducer and heart rate was calculated by blood pressure pulses. Sample compounds were infused into the left femoral vein at a rate of 320 μg/kg/minute until a maximum inotropic effect is obtained.

[9] = 0.5 h, dose 500 μg, 30 minutes, read-out: Coronary Blood Flow Increase Ratio, 30 Minutes after Administration
[10] = dose 500 μg, read-out: Coronary Blood Flow Increase Ratio, Maximum Increase Ratio of Sample
[11] = read-out: Coronary Blood Flow Increase Ratio, Maximum Increase Ratio of Sample

| SMILES | activation at 50 µg/mL [1] [%] | activation at 0.5 mg [2, 9] [%] | activation at 0.5 mg [2, 10] [%] | Blood Pressure (systolic), direction of change [3] | Heart Rate (up) [3] [%] | further results |
| --- | --- | --- | --- | --- | --- | --- |
| CC1=C(C2CCNCC2)SCC(=O)N1 [By-product, 5-methyl-6-(4-piperidinyl)-2H-1,4-thiazin-3(4H)-one] | 5 | 5 | 12 |  |  |  |
| Cc1[nH]c(=O)c(C#N)cc1-c1ccncc1 [Milrinone] |  |  |  | decrease | 51 |  |
| CC1=C(c2ccncc2)SCC(=O)N1C [R1 = CH3, R2 = CH3, R3 = H, 4,5-dimethyl-6-(4-pyridinyl)-2H-1,4-thiazin-3-one] | 18 |  |  |  |  | activation at 0.1 mg ([2]; 0.5 h, 30 minutes, read-out: Coronary Blood Flow Increase Ratio, 30 Minutes after Administration): 8%; activation at 0.1 mg [2, 11]: 28% |
| CC1=C(c2ccncc2)SCC(=O)N1 [R1 = H, R2 = CH3, R3 = H, 5-methyl-6-(4-pyridinyl)-2H-1,4-thiazin-3(4H)-one] | 40 | 10 | 71 | decrease | 19 | LD50 [4]: 165 to 200 mg/kg; inhibition at 83 µg/mL ([5]; stimulant 100 μM ADP, read-out: Aggregation Inhibition Ratio, ADP): 80%; inhibition at 83 µg/mL ([5]; stimulant 100 μg/ml collagen, read-out: Aggregation Inhibition Ratio, Collagen): 100%; activation at 10 µg/mL [6]: 61%; activation at 1 µg/mL ([6]; 1.0 × 10^-6 g/ml): 27%; Influence of Smooth Muscle of Bronchus (relaxed by) [7]: ≥ 0.13 m/m; Heart Rate (up) [8]: 30%; Contractile Force of Ventricular Muscles (increase) [8]: 170% |
| O=NO [Sodium nitrite, reference compound] |  |  |  |  |  | activation at 0.5 mg ([2]; 0.5 h, read-out: Coronary Blood Flow Increase Ratio, 30 Minutes after Administration): 5%; activation at 0.5 mg [2, 11]: 20% |
| Cn1c(=O)c2[nH]cnc2n(C)c1=O [Theophylline, reference compound] |  | -10 | 32 | increase | 29 |  |
| Nc1cc(-c2ccncc2)c[nH]c1=O [amrinone, reference compound] |  |  |  |  |  | activation at 100 µg/mL ([6]; 1.0 × 10^-4 g/ml): 77%; activation at 10 µg/mL [6]: 17%; Heart Rate (up) [8]: 25%; Contractile Force of Ventricular Muscles (increase) [8]: 25% |
| CC(C)NCC(O)c1ccc(O)c(O)c1 (centres unmarked) [isoproterenol, reference compound] | 40 |  |  |  |  |  |
